In the SangsterLogP compilation one finds logP data, which are given here for 19 compounds.

The logP is the decadic logarithm of the partition coefficient of the neutral form, usually between octanol and water. The low end stands for lower lipophilicity, the high end for higher lipophilicity.

The nature of one data set: method code G-HPLC, from DOI: 10.1021/je00030a025.
`CC(=O)OCCBr` came in with a logP of 1.11.
For the compound `Fc1cccc(CCl)c1`, the logP stood at 2.77.
On the same count and under the same terms, for `O=Cc1ccco1` the value was 0.52; for `C=CCCBr`, 2.53.
`CCCCCc1ccccc1`: the logP stood at 4.9.
Same read-out and setting: to `CCCCCCCC(C)=O` belongs 3.18; to `CCCCCCC(C)=O`, 2.76.

The nature of another data set: method code G-GLC, from DOI: 10.1021/je00030a025.
Consider `CCCCCCBr`, for which the logP came out at 3.8.
Still for that read-out and setting: to `CCCCCCCC` belongs 5.18.
Still for that read-out and setting: for `CCCCCCCCl` the value was 4.15; for `CCC(=O)CC`, 0.99.
On the same count and under the same terms, for `C=CCCCCC` the value was 3.99.
Consider `CCCCCCCI`, for which the logP was determined as 4.7.
The compound `CCCCCCCCBr` came in with a logP of 4.89.
On the same count and under the same terms, for `ClCCCBr` the value was 2.18.
Same read-out and setting: to `C=CCCCCCCC` belongs 5.15; to `CCCCCCCO`, 2.57; to `C#CCCCC`, 2.73.
`Fc1ccccc1CCl` showed a logP of 2.67.
